Measured values published in article PMC8793051 (ACS Omega, 2022).

Key:
[1] = tested on: oligo-1: d(CGCGAATTCGCG)2; assay: Fluorescence titration; format: binding; conditions: 20 °C, pH 7.2
[2] = tested on: oligo-2: d(CGATGTACATCG)2; assay: Fluorescence titration; format: binding; conditions: 20 °C, pH 7.2
NIH3T3 = assay: MTT cytotoxicity assay; format: cell-based; conditions: Mus musculus, NIH3T3, 48 h
RPMI-8226 = assay: NCI-60 SRB growth assay; format: cell-based, human
SR = assay: NCI-60 SRB growth assay; format: cell-based, human
HOP-92 = assay: NCI-60 SRB growth assay; format: cell-based, human
NCI-H460 = assay: NCI-60 SRB growth assay; format: cell-based, human
COLO 205 = assay: NCI-60 SRB growth assay; format: cell-based, human
HT29 = assay: NCI-60 SRB growth assay; format: cell-based, human
SF-268 = assay: NCI-60 SRB growth assay; format: cell-based, human
SNB-75 = assay: NCI-60 SRB growth assay; format: cell-based, human
MDA-MB-435 = assay: NCI-60 SRB growth assay; format: cell-based, human
SK-MEL-2 = assay: NCI-60 SRB growth assay; format: cell-based, human; conditions: SK-MEL-2
SK-MEL-28 = assay: NCI-60 SRB growth assay; format: cell-based, human
SK-MEL-5 = assay: NCI-60 SRB growth assay; format: cell-based, human
UACC-257 = assay: NCI-60 SRB growth assay; format: cell-based, human
OVCAR-4 = assay: NCI-60 SRB growth assay; format: cell-based, human
OVCAR-8 = assay: NCI-60 SRB growth assay; format: cell-based, human; conditions: OVCAR-8
NCI/ADR-RES = assay: NCI-60 SRB growth assay; format: cell-based, human
CAKI-1 = assay: NCI-60 SRB growth assay; format: cell-based, human
UO-31 = assay: NCI-60 SRB growth assay; format: cell-based, human
DU-145 = assay: NCI-60 SRB growth assay; format: cell-based, human
MCF7 = assay: NCI-60 SRB growth assay; format: cell-based, human
MDA-MB-231/ATCC = assay: NCI-60 SRB growth assay; format: cell-based, human
T-47D = assay: NCI-60 SRB growth assay; format: cell-based, human
Hu Topo I = target: T1, Hu Topo I (Homo sapiens, UniProt P11387); assay: Plasmid DNA relaxation assay
T1 sequence (P11387 1-765): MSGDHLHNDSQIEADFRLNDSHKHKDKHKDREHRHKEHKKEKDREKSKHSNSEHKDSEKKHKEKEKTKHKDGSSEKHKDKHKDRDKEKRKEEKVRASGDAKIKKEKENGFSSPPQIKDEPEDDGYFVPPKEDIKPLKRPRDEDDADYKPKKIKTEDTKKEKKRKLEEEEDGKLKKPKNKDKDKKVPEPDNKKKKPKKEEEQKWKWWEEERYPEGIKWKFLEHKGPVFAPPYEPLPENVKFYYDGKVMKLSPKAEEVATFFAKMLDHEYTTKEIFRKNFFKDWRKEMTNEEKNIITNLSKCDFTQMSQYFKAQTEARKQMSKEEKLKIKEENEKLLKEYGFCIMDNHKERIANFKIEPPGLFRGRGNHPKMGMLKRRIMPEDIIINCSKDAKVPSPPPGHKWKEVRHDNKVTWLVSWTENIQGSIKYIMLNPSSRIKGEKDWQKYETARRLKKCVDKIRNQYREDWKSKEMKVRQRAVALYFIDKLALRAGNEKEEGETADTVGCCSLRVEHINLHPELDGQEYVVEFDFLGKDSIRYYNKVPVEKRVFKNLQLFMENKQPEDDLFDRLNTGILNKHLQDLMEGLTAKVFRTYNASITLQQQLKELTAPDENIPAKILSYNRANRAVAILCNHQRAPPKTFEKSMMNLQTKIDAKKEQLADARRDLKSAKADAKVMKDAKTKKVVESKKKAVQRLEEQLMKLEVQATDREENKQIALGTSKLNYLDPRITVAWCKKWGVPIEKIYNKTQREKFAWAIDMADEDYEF

SMILES: CCCCN1CCN(c2ccc3[nH]c(-c4ccc5[nH]c(-c6ccc(OCC)c(OCC)c6)nc5c4)nc3c2)CC1 [12a, 5-(4-Butylpiperazin-1-yl)-2-(2-(3,4-diethoxyphenyl)-1H-benzo[d]imidazol-5-yl)-1H-benzo[d]imidazole]
- Ka binding affinity with oligo-1 [1]: 1 × 10^7 M^–1
- Ka binding affinity with oligo-2 [2]: 4 × 10^6 M^1
- IC50 (NIH3T3): 8200 nM
- GI50 (RPMI-8226; Homo sapiens, RPMI-8226): 430 nM
- CC50 (RPMI-8226; Homo sapiens, RPMI-8226, read-out: LC50): > 100000 nM
- TGI (RPMI-8226; RPMI-8226): 2060 nM
- TGI (SR): 1190 nM
- GI50 (SR; Homo sapiens): 310 nM
- CC50 (SR; Homo sapiens, read-out: LC50): > 100000 nM
- TGI (HOP-92; HOP-92): 3170 nM
- GI50 (HOP-92; Homo sapiens, HOP-92): 1230 nM
- CC50 (HOP-92; Homo sapiens, HOP-92, read-out: LC50): 8150 nM
- GI50 (NCI-H460; Homo sapiens, NCI-H460): 530 nM
- CC50 (NCI-H460; Homo sapiens, NCI-H460, read-out: LC50): 5310 nM
- TGI (NCI-H460; NCI–H460): 1860 nM
- TGI (COLO 205; COLO 205): 1520 nM
- GI50 (COLO 205; Homo sapiens, COLO 205): 230 nM
- CC50 (COLO 205; Homo sapiens, COLO 205, read-out: LC50): 6180 nM
- TGI (HT29; HT29): 2970 nM
- GI50 (HT29; Homo sapiens, HT-29): 800 nM
- CC50 (HT29; Homo sapiens, HT-29, read-out: LC50): 100000 nM
- GI50 (SF-268; Homo sapiens, SF-268): 2660 nM
- CC50 (SF-268; Homo sapiens, SF-268, read-out: LC50): > 100000 nM
- TGI (SF-268; SF-268): 22000 nM
- GI50 (SNB-75; Homo sapiens, SNB-75): 650 nM
- CC50 (SNB-75; Homo sapiens, SNB-75, read-out: LC50): 4540 nM
- TGI (SNB-75; SNB-75): 2010 nM
- GI50 (MDA-MB-435; Homo sapiens, MDA-MB-435): 1090 nM
- CC50 (MDA-MB-435; Homo sapiens, MDA-MB-435, read-out: LC50): 5240 nM
- TGI (MDA-MB-435; MDA-MB-435): 2390 nM
- GI50 (SK-MEL-2; Homo sapiens): 1680 nM
- TGI (SK-MEL-2): 3660 nM
- GI50 (SK-MEL-28; Homo sapiens, SK-MEL-28): 1010 nM
- CC50 (SK-MEL-28; Homo sapiens, SK-MEL-28, read-out: LC50): 4860 nM
- TGI (SK-MEL-28; SK-MEL-28): 2220 nM
- GI50 (SK-MEL-5; Homo sapiens, SK-MEL-5): 1090 nM
- CC50 (SK-MEL-5; Homo sapiens, SK-MEL-5, read-out: LC50): 9220 nM
- TGI (SK-MEL-5; SK-MEL-5): 3160 nM
- GI50 (UACC-257; Homo sapiens, UACC-257): 1210 nM
- CC50 (UACC-257; Homo sapiens, UACC-257, read-out: LC50): > 100000 nM
- TGI (UACC-257; UACC-257): 10500 nM
- GI50 (OVCAR-4; Homo sapiens, OVCAR-4): 1480 nM
- CC50 (OVCAR-4; Homo sapiens, OVCAR-4, read-out: LC50): 6950 nM
- TGI (OVCAR-4; OVCAR-4): 3210 nM
- GI50 (OVCAR-8; Homo sapiens): 890 nM
- TGI (OVCAR-8): 3060 nM
- TGI (NCI/ADR-RES): 100000 nM
- GI50 (NCI/ADR-RES; Homo sapiens): 100000 nM
- CC50 (NCI/ADR-RES; Homo sapiens, read-out: LC50): > 100000 nM
- TGI (CAKI-1; CAKI-1): 2520 nM
- GI50 (CAKI-1; Homo sapiens, CAKI-1): 1040 nM
- CC50 (CAKI-1; Homo sapiens, CAKI-1, read-out: LC50): 6120 nM
- GI50 (UO-31; Homo sapiens, UO-31): 2000 nM
- CC50 (UO-31; Homo sapiens, UO-31, read-out: LC50): 43800 nM
- TGI (UO-31; UO-31): 5800 nM
- TGI (DU-145; DU-145): 2210 nM
- GI50 (DU-145; Homo sapiens, DU-145): 1000 nM
- CC50 (DU-145; Homo sapiens, DU-145, read-out: LC50): 4880 nM
- TGI (MCF7): 1420 nM
- GI50 (MCF7; Homo sapiens): 190 nM
- GI50 (MDA-MB-231/ATCC; Homo sapiens, MDA-MB-231): 1690 nM
- CC50 (MDA-MB-231/ATCC; Homo sapiens, MDA-MB-231, read-out: LC50): 6380 nM
- TGI (MDA-MB-231/ATCC; MDA-MB-231): 3280 nM
- GI50 (T-47D; Homo sapiens, T47D): 1360 nM
- CC50 (T-47D; Homo sapiens, T47D, read-out: LC50): > 100000 nM
- TGI (T-47D; T-47D): 7880 nM
- IC90 (Hu Topo I): 152000 nM
